Reference: US20240003879A1, “METHODS FOR DIAGNOSIS AND MONITORING OF TOXIC EPIDERMAL NECROLYSIS” (INSERM (INSTITUT NATIONAL DE LA SANTÉ ET DE LA RECHERCHE …, priority 2020, published 2024)
“Also recorded” adds a separate entry of the source. Like-named read-outs stand apart in the source and are kept apart here.

Assays:
[1] = tested on: TCRαβ Skw3 transfectant C4 (TCR of top clone of patient TEN-15); type: cell-based, human; settings: for CD69 expression response of transduced Skw3 cells to drug (in words): transductant from patient TEN-15; for % of CD69 expression in CD3+ transfectants, Concentration 1 / % of CD69 expression in CD3+ transfectants, Concentration 2 / % of CD69 expression in CD3+ transfectants, Concentration 3: transfectant C4, 24 h; for % of CD69 expression in CD3+ transfectants, Concentration 1: Levofloxacin (no drug 6.0) / Metronidazole (no drug 6.3) 25 μg/ml; for % of CD69 expression in CD3+ transfectants, Concentration 2: Levofloxacin (no drug 6.0) / Metronidazole (no drug 6.3) 50 μg/ml; for % of CD69 expression in CD3+ transfectants, Concentration 3: Levofloxacin (no drug 6.0) / Metronidazole (no drug 6.3) 100 μg/ml
Description: Skw3 cell lines (Leibniz Institute DSMZ, Brunswick, Germany, (50)) were transduced as described previously (51). […] The resulting retroviruses were used to transduce the TCR-defective Skw3 cell line, which also expresses the human CD8 coreceptor. The TCR-transduced cells outgrowing in selective medium were picked, and the expression of the correct TCR α and β was further assessed by flow cytometry, using a FACS-Canto-I device (BD-Biosciences, San Jose, CA, USA). The transduced cells with stable TCR expression were selected for assessment of reactivity and specificity, which was measured by TCR-induced CD69 expression. Skw3 cell lines expressing the cognate TCR α and β chains were cocultured with autologous EBV-transformed B-lymphoblastoid cell lines (52) at 1:2 ratio at 37° C. Tested drugs were added to the cocultures with the indicated concentrations. After 24 h, cells were stained with anti-human CD3 (Biolegend) and anti-human CD69 (Biolegend) and analysed by flow cytometry. […] Experiments were repeated at least 2 times. […] Then, the productive rearranged TCRα and TCRβ chains were transduced into Skw3 cells, a TCR defective lymphoma line (28) (data not shown). After verification of sustained and stable TCR expression (data not shown), transduced Skw3 cells were stimulated with the culprit (or control) drug in presence of autologous Epstein Barr Virus (EBV)-transformed B cells generated from patient's PBMCs. The following day, we measured CD69 expression at the surface of Skw3 cells, as marker for TCR stimulation. […] Heterologous EBV-transformed B cells were also used to stimulate control transductants.

[2] = tested on: TCRαβ Skw3 transfectant C1 (TCR of top clone of patient TEN-3); type: cell-based, human; settings: 24 h with autologous EBV-transformed B cells, no drug 2.3; for % of CD69 expression in CD3+ transfectants, Concentration 2: Allopurinol/Oxypurinol 62.5 μg/ml, Sulfamethoxazole 100 μg/ml; for % of CD69 expression in CD3+ transfectants, Concentration 3: Allopurinol/Oxypurinol 250 μg/ml, Sulfamethoxazole 200 μg/ml
Description: (§1) In brief, rearranged human variable TCR α- and β genes identified by TCR sequencing were synthesized by custom gene synthesis (GeneUniversal, Newark, Delaware, USA) and cloned into retroviral pMSCV Vector (Takara Bio USA Inc, Mountain View, California, USA) containing puromycin and neomycin resistance genes respectively.
(§2) Levels of CD69 expression were monitored in 10,000 CD3^+ events. Experiments were repeated at least 2 times.
(§3) Skw3 cell lines engineered for the expression of TCRs bearing Vα and Vβ chains from top clones found in patients TEN-3,-7,-10 and -15 were stimulated in vitro with EBV-transformed B cells in presence of graded doses of different drugs, or left unpulsed. […] Results from control transductants generated from Abacavir- (17D), Allopurinol-(AnWeAl) or Sulfamethoxazole- (UNO H13) allergic donors (53) (51) (7) are also shown. Bold and underlined values indicate >2 or >1.5 CD69 expression fold increase versus unpulsed cultures.

[3] = tested on: Skw3 control transductant AnWe A1 (Allopurinol-allergic donor); test: TCR-transductant stimulation assay, control transductant AnWe A1; type: cell-based, human; settings: 24 h, heterologous EBV-transformed B cells, no drug 4.3; for % of CD69 expression in CD3+ transfectants, Concentration 2: Allopurinol/Oxypurinol 62.5 μg/ml; for % of CD69 expression in CD3+ transfectants, Concentration 3: Allopurinol/Oxypurinol 250 μg/ml
Description: as §1, §2, §3

[4] = tested on: Skw3 control transductant 17D (Abacavir-allergic donor); test: TCR-transductant stimulation assay, control transductant 17D; type: cell-based, human; settings: control 17D, 24 h, heterologous EBV-transformed B cells, no drug 1.4
Description: Skw3 cell lines (Leibniz Institute DSMZ, Brunswick, Germany, (50)) were transduced as described previously (51). […] The resulting retroviruses were used to transduce the TCR-defective Skw3 cell line, which also expresses the human CD8 coreceptor. The TCR-transduced cells outgrowing in selective medium were picked, and the expression of the correct TCR α and β was further assessed by flow cytometry, using a FACS-Canto-I device (BD-Biosciences, San Jose, CA, USA). The transduced cells with stable TCR expression were selected for assessment of reactivity and specificity, which was measured by TCR-induced CD69 expression. Skw3 cell lines expressing the cognate TCR α and β chains were cocultured with autologous EBV-transformed B-lymphoblastoid cell lines (52) at 1:2 ratio at 37° C. Tested drugs were added to the cocultures with the indicated concentrations. After 24 h, cells were stained with anti-human CD3 (Biolegend) and anti-human CD69 (Biolegend) and analysed by flow cytometry. […] Experiments were repeated at least 2 times. […] Heterologous EBV-transformed B cells were also used to stimulate control transductants.

[5] = tested on: human CD38+CD8+ T cells; test: Model of graft versus host versus disease (GVHD): NGS mice reconstituted with PBMCs from a healthy donor; type: in vivo, mouse
Description: NGS mice were reconstituted with 10×10^6 PBMCs from a healthy donor, and treated by two-weekly injections of an anti-CD38+ mAb (Daratumumab, at 100 or 300 microg/mouse). Control group received PBS. Results depict the percentage +/−SD of CD38+ fraction among human CD8+ T cells present in the spleen, as evaluated by flow cytometry 28 days after PBMCs injection.
NGS mice were reconstituted with 10×10^6 PBMCs from a healthy donor, and treated by two-weekly injections of an anti-CD38+ mAb (Daratumumab, at 100 or 300 microg/mouse). Control group received PBS. The percentage of humanization was measured by flow cytometry at day 5 and at day 12 after PBMC injection. It was calculated by dividing the percentage of human blood CD45+ cells/the percentage of total (mouse+human) blood CD45+ cells.
To this end, NGS mice were reconstituted with 10×10^6 peripheral blood mononuclear cells (PBMCs) from a healthy donor, and treated by two-weekly injections of daratumumab (at 100 or 300 microg/mouse). Control group received PBS. Reconstitution is generally assessed by measuring the ratio of humanization (calculated by dividing the % of human blood CD45+ cells/the % of […]). A high ratio of humanization (>50-60%) classically correlates with the appearance of GVHD symptoms, approximately 1 month after transfer.

[6] = tested on: cytotoxic CD8+CD38+ T cells; test: TEN preclinical model: NSG mice transferred with PBMCs from a TEN patient and given lamotrigine; daratumumab evaluation; type: in vivo, mouse; settings: for depletion of already expanded CD38+ cells (CD8+CD38+ T cells) / depletion of cytotoxic CD8+CD38+Granzyme B+Granulysin+ T cell subset: curative mode: injections from day 29; for depletion of already expanded CD38+ cells (CD8+CD38+ T cells): blood (FIG. 16); for depletion of cytotoxic CD8+CD38+Granzyme B+Granulysin+ T cell subset: blood (FIG. 17); for formation/expansion of cytotoxic CD8+CD38+Granzyme B+Granulysin+ T cell subset: blood (FIG. 15A); for formation/expansion of CD4+CD38+ and CD8+CD38+ T cells: preventive mode: i.p. 200 mg twice weekly from day 4, blood and spleen, throughout the protocol, versus control isotype (FIG. 13); for depletion of cytotoxic cells expressing the TCRVbeta7.1+ chain (CD8+Vbeta7.1+ T cells): spleen at day 31, versus isotype-treated controls (FIG. 12)
Method: (§4) NSG animals were adoptively transferred at day 0 with 1.10^6 millions PBMCs collected from a TEN patient, and successively administrated with lamotrigine (the culprit drug; every day, from day 4. In parallel, NSG mice were injected i.p. with […] of daratumumab or a control isotype twice weekly, starting mAb injections from day 4 (preventive mode). Results depict the kinetic of human CD8+Vbeta7.1+ T cell expansion measured by flow cytometry in the spleen of NSG mice at day 31. Results are expressed as mean and individual % of Vbeta7.1+ cell fraction among total CD8+ T cells. Ten mice per group were used in this experiment. Of note, 3.2% of Vbeta7.1+ cells were detected in CD8+ T cells at the time of cell transfer (day 0).
as §4, with “CD4+CD38+/− and CD8+CD38+/−” for “CD8+Vbeta7.1+”, “blood” for “spleen”, “throughout the protocol.” for “at day 31.”, “number” for “%”, “CD38+(A) and CD38− (B) cells/mL blood.” for “Vbeta7.1+ cell fraction among total CD8+ T cells.”, “experiment.” for “experiment. Of note, 3.2% of Vbeta7.1+ cells were detected in CD8+ T cells at the time of cell transfer (day 0).”
(§5) NSG animals were adoptively transferred at day 0 with 1.10^6 millions PBMCs collected from a TEN patient, and successively administrated with lamotrigine (the culprit drug; or vehicle by oral gavage, every day, from day 4. In parallel, NSG mice were injected i.p. with […] of daratumumab or a control isotype twice weekly, starting mAb injections from day 4 (preventive mode). Results depict the kinetic of human CD4+ and CD8+ T cell expansion measured by flow cytometry in the blood of NSG mice throughout the protocol. Results are expressed as mean and individual number of CD4+ and CD8+ T cells/mL blood. Ten mice per group were used in this experiment.
as §5, with “drug; 0.1 mg/kg/day),” for “drug; or vehicle by oral gavage,”, “human cytotoxic CD8+CD38+/−GranzymeB+Granulysin+” for “human CD4+ and CD8+”, “of CD8+CD38+GranzymeB+Granulysin+” for “of CD4+”, “and CD8+CD38+GranzymeB+Granulysin+ cells/mL blood (A). Details for total CD8+GranzymeB+Granulysin+” for “and CD8+”, “T cells are also shown (B).” for “T cells/mL blood.”
NSG animals were adoptively transferred at day 0 with 1.10^6 millions PBMCs collected from a TEN patient, and successively administrated with lamotrigine (the culprit drug; every day, from day 4. In parallel, NSG mice were injected i.p. with […] of daratumumab or a control isotype twice weekly, starting mAb treatment from day 4 (preventive mode) or from day 29 (curative mode). Results depict the kinetic of human CD8+CD38+/− T cell expansion measured by flow cytometry in the blood of NSG mice throughout the protocol. Results are expressed as mean and individual % of CD38+ and CD38− fractions among total CD8+ T cells. Five mice per group were used in this experiment. […]

[7] = 300 microg/mouse, 2 times a week

Compound: Cc1ncc([N+](=O)[O-])n1CCO [Metronidazole]
- CD69 expression response of transduced Skw3 cells to drug (in words) [1]: failed to respond
- CD69 expression response of transduced Skw3 cells to drug (in words) ([1]; listed as metronidazole): failed to detect robust CD69+ expression
- % of CD69 expression in CD3+ transfectants, Concentration 1 [1]: 5.7%
- % of CD69 expression in CD3+ transfectants, Concentration 2 [1]: 5.4%
- % of CD69 expression in CD3+ transfectants, Concentration 3 [1]: 6.0%

Compound: C[C@H]1COc2c(N3CCN(C)CC3)c(F)cc3c(=O)c(C(=O)O)cn1c23 [Levofloxacin]
- % of CD69 expression in CD3+ transfectants, Concentration 1 [1]: 5.6%
- % of CD69 expression in CD3+ transfectants, Concentration 2 [1]: 5.4%
- % of CD69 expression in CD3+ transfectants, Concentration 3 [1]: 4.4%

Compound: O=c1[nH]c(=O)c2c[nH]nc2[nH]1 [Oxypurinol]
- % of CD69 expression in CD3+ transfectants, Concentration 2 [2]: 22.9%
- % of CD69 expression in CD3+ transfectants, Concentration 3 [2]: 39.6%
- % of CD69 expression in CD3+ transfectants, Concentration 2 [3]: 5.0%
- % of CD69 expression in CD3+ transfectants, Concentration 3 [3]: 5.75%

Compound: Cc1cc(NS(=O)(=O)c2ccc(N)cc2)no1 [Sulfamethoxazole]
- % of CD69 expression in CD3+ transfectants, Concentration 2 [2]: 1.3%
- % of CD69 expression in CD3+ transfectants, Concentration 3 [2]: 1.4%

Compound: Nc1nc(NC2CC2)c2ncn([C@H]3C=C[C@@H](CO)C3)c2n1 [Abacavir]
- % of CD69 expression in CD3+ transfectants, Concentration 1 ([4]; Abacavir 1 μg/ml, Pantoprazole 12.5 μg/ml): 93.2%
- % of CD69 expression in CD3+ transfectants, Concentration 2 ([4]; Abacavir 10 μg/ml, Pantoprazole 25 μg/ml): 88.9%
- % of CD69 expression in CD3+ transfectants, Concentration 3 ([4]; Abacavir 20 μg/ml, Pantoprazole 50 μg/ml): 93.1%

Compound: Oc1ncnc2[nH]ncc12 [Allopurinol]
- % of CD69 expression in CD3+ transfectants, Concentration 2 [2]: 2.2%
- % of CD69 expression in CD3+ transfectants, Concentration 3 [2]: 3.05%
- % of CD69 expression in CD3+ transfectants, Concentration 2 [3]: 17.1%
- % of CD69 expression in CD3+ transfectants, Concentration 3 [3]: 26.4%

Compound: Daratumumab
- GVHD development, higher regimen [5, 7]: failed to prevent GVDH development
- T cell expansion, higher regimen [5, 7]: transiently inhibited T cell expansion
- expansion of human cells (ratio of humanization) ([5]; day 12, 7 days after the initial daratumumab injection, blood (FIG. 8)): transiently inhibited the expansion of human cells
- expansion of human cells (ratio of humanization) ([5]; day 19, 14 days after the initial daratumumab injection): inhibition was lost
- development of the GVHD ([5]; day 28, two-weekly injections, 100 or 300 microg/mouse): failed to hamper the development of the GVHD
- human CD38+CD8+ T cell levels in blood ([5]; murine GVHD model): reduction of human CD8+CD38+ T cell levels in blood; also recorded: reduction of human CD38+CD8+ T cells levels in blood
- depletion of CD38+ cells (CD38+ fraction among human CD8+ T cells) ([5]; two-weekly injections, 100 or 300 microg/mouse, spleen, flow cytometry, 28 days after PBMCs injection (FIG. 7), preliminary experiments): depleted CD38+ cells
- depletion of already expanded CD38+ cells (CD8+CD38+ T cells) [6]: acutely depleted the CD38+ cells that have already expanded
- depletion of already expanded CD38+ cells (CD8+CD38+ T cells) ([6]; listed as Daratumamub): efficiently depleted
- depletion of cytotoxic CD8+CD38+Granzyme B+Granulysin+ T cell subset [6]: acutely depleted
- depletion of cytotoxic CD8+CD38+Granzyme B+Granulysin+ T cell subset ([6]; listed as Daratumamub): efficiently depleted
- expansion of T cell subsets which do not express CD38 marker ([6]; preventive mode, from day 4 (FIG. 13B)): did not avoid the progressive expansion of some T cell subsets
- formation/expansion of cytotoxic CD8+CD38+Granzyme B+Granulysin+ T cell subset ([6]; preventive mode, from day 4): preventing the formation of cytotoxic CD8+CD38+Granzyme B+Granulysin+ T cell subset
- formation/expansion of cytotoxic CD8+CD38+Granzyme B+Granulysin+ T cell subset ([6]; preventive mode, from day 4, listed as Daratumamub): strongly inhibited the expansion
- accumulation of cytotoxic T cells (total CD8+GranzymeB+Granulysin+) ([6]; preventive mode, from day 4, blood (FIG. 15B)): severely impaired the accumulation of cytotoxic T cells
- global T cell expansion (CD4+ and CD8+ T cells/mL blood) ([6]; preventive mode, from day 4, versus control isotype (FIG. 14)): Lower expansion; also recorded: dramatically delayed and impaired the global T cell expansion
- formation/expansion of CD4+CD38+ and CD8+CD38+ T cells [6]: efficiently and extensively prevented the formation of CD4+CD38+ and CD8+CD38+ T cells
- formation/expansion of CD4+CD38+ and CD8+CD38+ T cells ([6]; listed as Daratumamub): blocked the expansion
- depletion of cytotoxic cells expressing the TCRVbeta7.1+ chain (CD8+Vbeta7.1+ T cells) ([6]; preventive mode): strong depletion
- depletion of cytotoxic cells expressing the TCRVbeta7.1+ chain (CD8+Vbeta7.1+ T cells) ([6]; preventive mode, listed as Daratumamub): preferentially depleted
